Molecular target: T1, Thromboxane A2 (TXA2) synthetase (Equus caballus, UniProt A0A9L0T8T9)
T1 sequence (A0A9L0T8T9 2-534): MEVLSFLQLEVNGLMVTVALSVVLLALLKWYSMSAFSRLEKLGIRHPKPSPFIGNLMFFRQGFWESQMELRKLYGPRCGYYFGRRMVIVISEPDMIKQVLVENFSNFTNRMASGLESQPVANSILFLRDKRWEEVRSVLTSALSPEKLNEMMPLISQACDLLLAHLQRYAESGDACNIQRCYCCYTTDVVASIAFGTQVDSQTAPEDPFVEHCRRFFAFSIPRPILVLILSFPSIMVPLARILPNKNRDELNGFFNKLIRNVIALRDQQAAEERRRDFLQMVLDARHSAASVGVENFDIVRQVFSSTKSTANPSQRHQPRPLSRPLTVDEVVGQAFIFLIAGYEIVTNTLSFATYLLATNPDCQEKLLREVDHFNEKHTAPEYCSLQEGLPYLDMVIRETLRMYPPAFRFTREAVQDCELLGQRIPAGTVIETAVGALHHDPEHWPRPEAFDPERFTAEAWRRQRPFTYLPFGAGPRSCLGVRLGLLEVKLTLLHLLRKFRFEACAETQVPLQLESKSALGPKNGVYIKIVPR
Assay: Inhibitory Action on Thromboxane A2 (TXA2) Synthetase (indomethacin-treated horse platelet microsomes, TXB2 radioimmunoassay)
Type: biochemical
Description: As a specimen of TXA2 synthetase was employed horse platelet microsomes treated with indomethacin (indomethacin-treated horse platelet microsomes: IPM), which were prepared according to the method described by Needleman et al. (Science 193 163, 1976).
to 60 μl of 50 mM tris-buffer solution (pH 7.5) of IPM (containing 140 μg as protein) was added 60 μl of the buffer solution or the solution containing the test compounds at various concentrations. The mixtures were left standing for 5 minutes at room temperature. Then at 0° C. to 100 μl portion of the mixture was added 20 μl of the buffer solution containing 30 ng of prostaglandin H2 (PGH2). The mixtures were left standing for 5 minutes at 0° C. to cause formation of thromboxane A2 (TXA2). The reaction of thromboxane A2 production was stopped by the addition of 500 μl of the tris-buffer to the mixture. Using 50 μl of the mixtures, the quantitative determination of thromboxane B2 (TXB2), a stable metabolite of TXA2, was done by means of the radioimmunoassay (Shibouta et al., Biochem. Pharmacol. 28 3601, 1979).
The inhibitory activity of the compounds on TXA2 -synthetase was determined from the difference in the production of TXB2 between the test group and the control group.

SMILES | inhibition at 0.03 µM (3 × 10^-8 M) [%] | inhibition at 0.1 µM (10^-7 M) [%] | % Inhibition on thromboxane A2 synthetase (3 × 10^-8 M) [%] | % Inhibition on thromboxane A2 synthetase (10^-7 M) [%]
Cc1ccc(S(=O)(=O)C(CCCC/C=C(/c2ccccc2)c2cccnc2)C(=O)O)cc1 (stereo not drawn) [Compound 1-b] | 45 | 80 | – | –
O=C(O)C(CCCC=C(c1ccccc1)c1cccnc1)[S+]([O-])c1ccccc1 (stereo not drawn) [Compound 1-e] | 45 | 80 | – | –
CC(C)(CCC/C=C(\c1cccnc1)c1cccs1)C(=O)O [3'-o] | – | – | 60 | 92
CC(C)(CCCC/C=C(\c1ccccc1)c1cccnc1)C(=O)O [Compound 1-l] | 48 | 90 | – | –
Cc1ccc(S(=O)(=O)C(CCCC/C=C(\c2ccccc2)c2cccnc2)C(=O)O)cc1 (stereo not drawn) [Compound 1-d] | 57 | 85 | – | –
COCC(CCC/C=C(\c1ccccc1)c1cccnc1)C(=O)O (stereo not drawn) [3'-i] | 42 | 88 | – | –
C#CCC(CCC/C=C(\c1ccccc1)c1cccnc1)C(=O)O (stereo not drawn) [3'-h] | 66 | 93 | – | –
O=C(O)C(CCC/C=C(/c1ccccc1)c1cccnc1)Cc1ccccc1 (stereo not drawn) [3'-e] | 33 | 90 | – | –
CC(C)(CCC/C=C(/c1cccnc1)c1cccs1)C(=O)O [3'-p] | – | – | 46 | 90
N#Cc1ccc(CC(CCC/C=C(\c2ccccc2)c2cccnc2)C(=O)O)cc1 (stereo not drawn) [3'-n] | 57 | 93 | – | –

Now from value to compound:

inhibition at 0.03 µM (3 × 10^-8 M) [%] | inhibition at 0.1 µM (10^-7 M) [%] | % Inhibition on thromboxane A2 synthetase (3 × 10^-8 M) [%] | % Inhibition on thromboxane A2 synthetase (10^-7 M) [%] | SMILES
30 | 87 | – | – | COC(=O)C(C)(CCC/C=C(\c1ccccc1)c1cccnc1)Sc1ccccc1 (stereo not drawn) [Compound 4-h]
– | 97 | 92 | – | CC(C)(CCC/C=C(\c1cccnc1)c1cccs1)C(=O)O [Compound 2-c, (E)-2,2-dimethyl-7-(3-pyridyl)-7-(2-thienyl)-6-heptenoic acid]
60 | 93 | – | – | O=C(O)C(CCC/C=C(\c1ccccc1)c1cccnc1)Sc1ccccc1 (stereo not drawn) [Compound 4-b]
83 | 92 | – | – | CC(C)(CCC/C=C(\c1ccccc1)c1cccnc1)C(=O)O [Compound 2-a, (E)-2,2-dimethyl-7-phenyl-7-(3-pyridyl)-6-heptenoic acid]
41 | 81 | – | – | CC(C)(O)C(CCC/C=C(\c1ccccc1)c1cccnc1)C(=O)O (stereo not drawn) [Compound 5-j]
32 | 77 | – | – | O=C(O)C(CCC/C=C(\c1ccccc1)c1cccnc1)C1=CCCC1 (stereo not drawn) [Compound 5-i]
52 | 84 | – | – | CSC(CCC/C=C(\c1ccccc1)c1cccnc1)C(=O)O (stereo not drawn) [Compound 4-a]
65 | 90 | – | – | CC(CCCC=C(c1cccnc1)c1ccsc1)C(=O)O (stereo not drawn) [Compound 2-e]
44 | 92 | – | – | CC(C)(CCCC/C=C(/c1ccccc1)c1cccnc1)C(=O)O [Compound 1-m]
62 | 92 | – | – | CC(C)(CCC/C=C(/c1cccnc1)c1cccs1)C(=O)O [Compound 2-d, (Z)-2,2-dimethyl-7-(3-pyridyl)-7-(2-thienyl)-6-heptenoic acid]
49 | 90 | – | – | CC(C)(CCC/C=C(/c1ccccc1)c1cccnc1)C(=O)O [Compound 2-b, (Z)-2,2-dimethyl-7-phenyl-7-(3-pyridyl)-6-heptenoic acid]
41 | 96 | – | – | O=C(O)C(CCC/C=C(\c1cccnc1)c1cccs1)c1ccccc1 (stereo not drawn) [Compound 2-n]
59 | 92 | – | – | C=C(C)C(CCC/C=C(\c1ccccc1)c1cccnc1)C(=O)O (stereo not drawn) [Compound 5-g]
50 | 88 | – | – | O=C(O)C(CCC/C=C(/c1ccccc1)c1cccnc1)Sc1ccccc1 (stereo not drawn) [Compound 4-c]

Reference: patent US4518602A, “Vinyl carboxylic acid derivatives, their production and use as inhibitors of thromboxane synthetase” (priority 1982, dated 1985)
